Mutagenic call data for 4 compounds are collected here from PubChem BioAssay AID1259407 (Chemical Carcinogenesis Research Information System (CCRIS), 2018).

This series deals with CCRIS mutagenicity, Ames/micronucleus/aberration tests. The series can be described thus: CCRIS mutagenicity studies.
The mark [1] stands for this setting: Test System: AMES SALMONELLA TYPHIMURIUM, Strain/Indicator: TA98, Metabolic Activation: NONE, Method: PREINCUBATION
Setting [2] is: Test System: AMES SALMONELLA TYPHIMURIUM, Strain/Indicator: TA100, Metabolic Activation: NONE, Method: PREINCUBATION

The source made the active and inactive calls. The rule behind the calls is not given here.

Take `COC1=CC(=O)C[C@@H](C)[C@]12Oc1c(Cl)c(OC)cc(OC)c1C2=O`: the mutagenic call is “active; positive (ploidy changes)” (End Point: IN VITRO CHROMOSOMAL ABERRATIONS, Test System: PERIPHERAL HUMAN BLOOD LYMPHOCYTES, Metabolic Activation: NONE); “active; positive” (End Point: IN VITRO MICRONUCLEUS, Test System: CHO CELLS, Metabolic Activation: RAT, LIVER, S-9, AROCLOR 1254); “active; positive” (End Point: IN VITRO MICRONUCLEUS, Test System: V79 CELLS, Metabolic Activation: NONE); “inactive; negative” (Test System: AMES SALMONELLA TYPHIMURIUM, Strain/Indicator: TA97, Metabolic Activation: HAMSTER, LIVER, S-9, AROCLOR 1254 (10 OR 30%), Method: PREINCUBATION); “inactive; negative” (Test System: AMES SALMONELLA TYPHIMURIUM, Strain/Indicator: TA97, Metabolic Activation: NONE, Method: PREINCUBATION); “inactive; negative” (Test System: AMES SALMONELLA TYPHIMURIUM, Strain/Indicator: TA97, Metabolic Activation: RAT, LIVER, S-9, AROCLOR 1254 (10 OR 30%), Method: PREINCUBATION). In addition, the mutagenic call by setting is: (Test System: AMES SALMONELLA TYPHIMURIUM, Strain/Indicator: TA98, Metabolic Activation: HAMSTER, LIVER, S-9, AROCLOR 1254 (10 OR 30%), Method: PREINCUBATION) “inactive; negative”; under setting [1], “inactive; negative”; (Test System: AMES SALMONELLA TYPHIMURIUM, Strain/Indicator: TA98, Metabolic Activation: RAT, LIVER, S-9, AROCLOR 1254 (10 OR 30%), Method: PREINCUBATION) “inactive; negative”; (Test System: AMES SALMONELLA TYPHIMURIUM, Strain/Indicator: TA100, Metabolic Activation: HAMSTER, LIVER, S-9, AROCLOR 1254 (10 OR 30%), Method: PREINCUBATION) “inactive; negative”; under setting [2], “inactive; negative”; (Test System: AMES SALMONELLA TYPHIMURIUM, Strain/Indicator: TA100, Metabolic Activation: RAT, LIVER, S-9, AROCLOR 1254 (10 OR 30%), Method: PREINCUBATION) “inactive; negative”. Also, the mutagenic call is, setting by setting: (Test System: AMES SALMONELLA TYPHIMURIUM, Strain/Indicator: TA100, Metabolic Activation: RAT, LIVER, S-9, PHENOBARBITAL, Method: PREINCUBATION) “inactive; negative”; (Test System: AMES SALMONELLA TYPHIMURIUM, Strain/Indicator: TA1535, Metabolic Activation: HAMSTER, LIVER, S-9, AROCLOR 1254 (10 OR 30%), Method: PREINCUBATION) “inactive; negative”; (Test System: AMES SALMONELLA TYPHIMURIUM, Strain/Indicator: TA1535, Metabolic Activation: NONE, Method: PREINCUBATION) “inactive; negative”; (Test System: AMES SALMONELLA TYPHIMURIUM, Strain/Indicator: TA1535, Metabolic Activation: RAT, LIVER, S-9, AROCLOR 1254 (10 OR 30%), Method: PREINCUBATION) “inactive; negative”; (Test System: AMES SALMONELLA TYPHIMURIUM, Strain/Indicator: TA1537, Metabolic Activation: HAMSTER, LIVER, S-9, AROCLOR 1254 (30%), Method: PREINCUBATION) “inactive; negative”; (Test System: AMES SALMONELLA TYPHIMURIUM, Strain/Indicator: TA1537, Metabolic Activation: NONE, Method: PREINCUBATION) “inactive; negative”. In addition, the mutagenic call is, setting by setting: (Test System: AMES SALMONELLA TYPHIMURIUM, Strain/Indicator: TA1537, Metabolic Activation: RAT, LIVER, S-9, AROCLOR 1254 (30%), Method: PREINCUBATION) “inactive; negative”; (Test System: MOUSE LYMPHOMA, Strain/Indicator: L5178Y (TK+/TK-), Metabolic Activation: NONE, Method: MICROWELL) “active; positive”; (Test System: MOUSE LYMPHOMA, Strain/Indicator: L5178Y (TK+/TK-), Metabolic Activation: S-9, Method: MICROWELL) “active; positive”.
Turning to `CN1CCN(c2c(F)cc3c(=O)c(C(=O)O)cn4c3c2OCN4C)CC1`, the mutagenic call by setting is: (Test System: AMES SALMONELLA TYPHIMURIUM, Strain/Indicator: TA102, Metabolic Activation: NONE, Method: STANDARD PLATE) “active; positive”; (Test System: CHINESE HAMSTER V-79, Strain/Indicator: V-79 (HPRT)/6-THIOGUANINE, Metabolic Activation: RAT, LIVER, S-9, AROCLOR 1254) “active; positive”.
`O=[N+]([O-])c1ccc(CNc2ncnc3nc[nH]c23)cc1`: the mutagenic call runs as follows: (Test System: AMES SALMONELLA TYPHIMURIUM, Strain/Indicator: TA98(1,8-DNP), Metabolic Activation: NONE, Method: PREINCUBATION) “inactive; negative”; (Test System: AMES SALMONELLA TYPHIMURIUM, Strain/Indicator: TA98(1,8-DNP), Metabolic Activation: RAT, LIVER, S-9, PCB, Method: PREINCUBATION) “inactive; negative”; (Test System: AMES SALMONELLA TYPHIMURIUM, Strain/Indicator: TA98(NR), Metabolic Activation: NONE, Method: PREINCUBATION) “inactive; negative”; (Test System: AMES SALMONELLA TYPHIMURIUM, Strain/Indicator: TA98(NR), Metabolic Activation: RAT, LIVER, S-9, PCB, Method: PREINCUBATION) “inactive; negative”; under setting [1], “inactive; negative”; (Test System: AMES SALMONELLA TYPHIMURIUM, Strain/Indicator: TA98, Metabolic Activation: RAT, LIVER, S-9, PCB, Method: PREINCUBATION) “inactive; negative”. Moreover, the mutagenic call (Test System: AMES SALMONELLA TYPHIMURIUM, Strain/Indicator: TA100(1,8-DNP), Metabolic Activation: NONE, Method: PREINCUBATION) was “inactive; negative”; the mutagenic call (Test System: AMES SALMONELLA TYPHIMURIUM, Strain/Indicator: TA100(1,8-DNP), Metabolic Activation: RAT, LIVER, S-9, PCB, Method: PREINCUBATION) was “inactive; negative”; the mutagenic call (Test System: AMES SALMONELLA TYPHIMURIUM, Strain/Indicator: TA100(NR), Metabolic Activation: NONE, Method: PREINCUBATION) is “inactive; negative”; the mutagenic call (Test System: AMES SALMONELLA TYPHIMURIUM, Strain/Indicator: TA100(NR), Metabolic Activation: RAT, LIVER, S-9, PCB, Method: PREINCUBATION) was “inactive; negative”; the mutagenic call under setting [2] was “inactive; negative”; the mutagenic call (Test System: AMES SALMONELLA TYPHIMURIUM, Strain/Indicator: TA100, Metabolic Activation: RAT, LIVER, S-9, PCB, Method: PREINCUBATION) was “inactive; negative”. The mutagenic call was “inactive; negative” (Test System: AMES SALMONELLA TYPHIMURIUM, Strain/Indicator: YG1020, Metabolic Activation: NONE, Method: PREINCUBATION); “inactive; negative” (Test System: AMES SALMONELLA TYPHIMURIUM, Strain/Indicator: YG1020, Metabolic Activation: RAT, LIVER, S-9, PCB, Method: PREINCUBATION); “inactive; negative” (Test System: AMES SALMONELLA TYPHIMURIUM, Strain/Indicator: YG1021, Metabolic Activation: NONE, Method: PREINCUBATION); “active; positive” (Test System: AMES SALMONELLA TYPHIMURIUM, Strain/Indicator: YG1021, Metabolic Activation: RAT, LIVER, S-9, PCB, Method: PREINCUBATION); “active; positive” (Test System: AMES SALMONELLA TYPHIMURIUM, Strain/Indicator: YG1024, Metabolic Activation: NONE, Method: PREINCUBATION); “inactive; negative” (Test System: AMES SALMONELLA TYPHIMURIUM, Strain/Indicator: YG1024, Metabolic Activation: RAT, LIVER, S-9, PCB, Method: PREINCUBATION). Also, the mutagenic call runs as follows: (Test System: AMES SALMONELLA TYPHIMURIUM, Strain/Indicator: YG1025, Metabolic Activation: NONE, Method: PREINCUBATION) “inactive; negative”; (Test System: AMES SALMONELLA TYPHIMURIUM, Strain/Indicator: YG1025, Metabolic Activation: RAT, LIVER, S-9, PCB, Method: PREINCUBATION) “inactive; negative”; (Test System: AMES SALMONELLA TYPHIMURIUM, Strain/Indicator: YG1026, Metabolic Activation: NONE, Method: PREINCUBATION) “inactive; negative”; (Test System: AMES SALMONELLA TYPHIMURIUM, Strain/Indicator: YG1026, Metabolic Activation: RAT, LIVER, S-9, PCB, Method: PREINCUBATION) “inactive; negative”; (Test System: AMES SALMONELLA TYPHIMURIUM, Strain/Indicator: YG1029, Metabolic Activation: NONE, Method: PREINCUBATION) “inactive; negative”; (Test System: AMES SALMONELLA TYPHIMURIUM, Strain/Indicator: YG1029, Metabolic Activation: RAT, LIVER, S-9, PCB, Method: PREINCUBATION) “inactive; negative”.
For `ONc1ccc(Cl)c(Cl)c1`, the mutagenic call was “inactive; negative” (Test System: AMES SALMONELLA TYPHIMURIUM, Strain/Indicator: TA97, Metabolic Activation: NONE, Method: STANDARD PLATE); “inactive; negative” (Test System: AMES SALMONELLA TYPHIMURIUM, Strain/Indicator: TA98, Metabolic Activation: NONE, Method: STANDARD PLATE); “inactive; negative” (Test System: AMES SALMONELLA TYPHIMURIUM, Strain/Indicator: TA100, Metabolic Activation: NONE, Method: STANDARD PLATE); “inactive; negative” (Test System: AMES SALMONELLA TYPHIMURIUM, Strain/Indicator: TA104, Metabolic Activation: NONE, Method: STANDARD PLATE); “inactive; negative” (Test System: CHINESE HAMSTER OVARY, Strain/Indicator: CHO-K1-BH4 (HGPRT), Metabolic Activation: NONE).
